Key:
[1] = Partition coefficient, log P by UPLC method; type: physicochemical; conditions: octanol/water
[2] = Partition coefficient, log P of the compound; type: physicochemical; conditions: octanol/water

| SMILES | logP [1] | logP [2] |
| --- | --- | --- |
| C=CCc1ccccc1OCC(O)CNC(C)C (stereo not drawn) [ALPRENOLOL] | 3.4 | – |
| CC(C)NCC(O)COc1ccc(COCCOC(C)C)cc1 (stereo not drawn) [BISOPROLOL] | 2.6 | 2.15 |
| CCCCN1CCCCC1C(=O)Nc1c(C)cccc1C (stereo not drawn) [BUPIVACAINE] | 3.8 | 3.72 |
| CCCCN(CCCC)CCCOC(=O)c1ccc(N)cc1 [BUTACAINE] | 4.7 | 4.26 |
| CC(C)NCC(O)COc1cccc2[nH]c3ccccc3c12 (stereo not drawn) [CARAZOLOL] | 3.4 | 3.73 |
| CCCCOc1cc(C(=O)NCCN(CC)CC)c2ccccc2n1 [DIBUCAINE] | – | 4.19 |
| Cc1cccc(C)c1NC(=O)C1CCCCN1C (stereo not drawn) [MEPIVACAINE] | 2.2 | – |
| CC(=O)Oc1c(C)cc(OCC(O)CNC(C)C)c(C)c1C (stereo not drawn) [METIPRANOLOL] | 3 | 2.81 |
| COCCc1ccc(OCC(O)CNC(C)C)cc1 (stereo not drawn) [METOPROLOL] | 2.2 | – |
| C=CCOc1ccccc1OCC(O)CNC(C)C (stereo not drawn) [OXPRENOLOL] | 2.6 | 2.51 |
| CC(C)NCC(O)COc1cccc2[nH]ccc12 (stereo not drawn) [PINDOLOL] | 1.9 | 1.83 |
| CCCNC(C)C(=O)Nc1ccccc1C (stereo not drawn) [PRILOCAINE] | 2.3 | 2.12 |
| CCN(CC)CCOC(=O)c1ccc(N)cc1 [PROCAINE] | 2.1 | 2.03 |
| CCCCNc1ccc(C(=O)OCCN(C)C)cc1 [TETRACAINE] | – | 3.39 |
